In ChEMBL document CHEMBL1153424, “Discovery of 4-(benzylaminomethylene)isoquinoline-1,3-(2H,4H)-diones and 4-[(pyridylmethyl)aminomethylene]isoquinoline-1,3-(2H,4H)-diones as potent and selective inhibitors of the cyclin-dependent kinase 4” (J Med Chem, 2009):
pIC50: −log10 of the molar value.

Key:
[1] = Metabolic stability in Sprague-Dawley rat liver microsome assessed as half life after 15 mins using NADPH cofactor; format: ADME; conditions: liver microsomes
[2] = Metabolic stability in Sprague-Dawley rat liver microsome assessed as half life after 15 mins using NADPH/UDPGA cofactor; format: ADME; conditions: liver microsomes
HCT-116 = assay: cells; conditions: Homo sapiens, HCT-116, 72 h
Description: Cytotoxicity against human HCT116 cells after 3 days by SRB assay

MCF7 = assay: cells; conditions: Homo sapiens, MCF7, 72 h
Description: Cytotoxicity against human MCF7 cells after 3 days by SRB assay

[3] = biological target: Cyclin-dependent kinase 4/cyclin D1 (Homo sapiens, UniProt P11802); assay: (§1) Inhibition of CDK4/Cyclin D1 assessed as inhibition of retinoblastoma susceptibility gene product phosphorylation; format: protein-complex assay
[4] = biological target: Cyclin-dependent kinase 1/cyclin B1 (Homo sapiens, UniProt P06493); assay: (§2) Inhibition of CDK1/Cyclin B1 assessed as inhibition of retinoblastoma susceptibility gene product phosphorylation
[5] = biological target: Cyclin-dependent kinase 2 (Homo sapiens, UniProt P24941); assay: Inhibition of CDK2/Cyclin E assessed as inhibition of retinoblastoma susceptibility gene product phosphorylation
[6] = biological target: Cyclin-dependent kinase 1/cyclin B1 (Homo sapiens, UniProt P06493+P14635); assay: as §2
[7] = Selectivity for CDK4/Cyclin D1 over […]
[8] = Selectivity for CDK4/Cyclin D1 over CDK2/Cyclin E
[9] = biological target: MAP kinase-activated protein kinase 2 (Homo sapiens, UniProt P49137); assay: Inhibition of MK2
[10] = biological target: Mitogen-activated protein kinase kinase kinase 8 (Homo sapiens, UniProt P41279); assay: Inhibition of Tpl2
[11] = biological target: Tyrosine-protein kinase Lck (Homo sapiens, UniProt P06239); assay: Inhibition of LCK
[12] = biological target: Serine/threonine-protein kinase mTOR (Homo sapiens, UniProt P42345); assay: Inhibition of mTOR
[13] = biological target: Protein kinase C theta type (Homo sapiens, UniProt Q04759); assay: Inhibition of PKCtheta
[14] = biological target: Signal transducer and activator of transcription 3 (Homo sapiens, UniProt P40763); assay: Inhibition of STAT3
[15] = biological target: Tyrosine-protein kinase Lyn (Homo sapiens, UniProt P07948); assay: Inhibition of LYN
[16] = Inhibition of p70S6
[17] = biological target: Proto-oncogene tyrosine-protein kinase Src (Homo sapiens, UniProt P12931); assay: Inhibition of Src
[18] = biological target: RAC-alpha serine/threonine-protein kinase (Homo sapiens, UniProt P31749); assay: Inhibition of AKT
[19] = biological target: Cyclin-dependent kinase 4/cyclin D1 (Homo sapiens, UniProt P11802+P24385); assay: as §1; format: protein-complex assay
Sequence of Cyclin-dependent kinase 4/cyclin D1 (Homo sapiens, UniProt P11802+P24385) (P11802 whole entry): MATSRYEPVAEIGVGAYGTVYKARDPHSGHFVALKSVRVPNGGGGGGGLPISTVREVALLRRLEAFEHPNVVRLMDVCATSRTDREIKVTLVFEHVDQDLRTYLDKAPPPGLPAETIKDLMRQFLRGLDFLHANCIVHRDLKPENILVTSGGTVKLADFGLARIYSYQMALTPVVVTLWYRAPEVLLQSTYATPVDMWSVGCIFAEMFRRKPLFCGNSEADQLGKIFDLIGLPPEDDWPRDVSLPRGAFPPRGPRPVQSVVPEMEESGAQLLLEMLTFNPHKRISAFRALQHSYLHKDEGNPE
Sequence of Cyclin-dependent kinase 4/cyclin D1 (Homo sapiens, UniProt P11802+P24385) (P24385 whole entry): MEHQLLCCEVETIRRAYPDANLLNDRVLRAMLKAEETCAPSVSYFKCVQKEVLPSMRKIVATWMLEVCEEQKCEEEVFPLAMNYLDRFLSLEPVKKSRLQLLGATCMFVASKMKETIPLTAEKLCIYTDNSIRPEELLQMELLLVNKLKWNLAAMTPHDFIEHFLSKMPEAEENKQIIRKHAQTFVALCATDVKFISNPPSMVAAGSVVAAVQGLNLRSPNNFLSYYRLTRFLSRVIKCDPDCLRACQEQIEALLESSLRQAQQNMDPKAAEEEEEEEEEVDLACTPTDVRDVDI

Sequence of Cyclin-dependent kinase 4/cyclin D1 (Homo sapiens, UniProt P11802) (P11802 whole entry): as the sequence (P11802 whole entry) above
Sequence of Cyclin-dependent kinase 4/cyclin D1 (Homo sapiens, UniProt P11802) (P24385 whole entry, further chain): as the sequence (P24385 whole entry) above
Sequence of Cyclin-dependent kinase 1/cyclin B1 (Homo sapiens, UniProt P06493+P14635) (P06493 whole entry): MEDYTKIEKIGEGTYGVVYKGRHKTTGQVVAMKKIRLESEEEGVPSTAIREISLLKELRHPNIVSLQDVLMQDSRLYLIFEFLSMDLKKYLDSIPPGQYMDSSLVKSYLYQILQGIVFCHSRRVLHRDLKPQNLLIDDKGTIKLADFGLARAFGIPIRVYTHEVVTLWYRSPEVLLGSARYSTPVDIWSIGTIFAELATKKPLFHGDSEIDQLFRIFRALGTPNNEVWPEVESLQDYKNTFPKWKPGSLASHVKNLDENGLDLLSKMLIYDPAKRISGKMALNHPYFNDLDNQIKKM
Sequence of Cyclin-dependent kinase 1/cyclin B1 (Homo sapiens, UniProt P06493+P14635) (P14635 whole entry): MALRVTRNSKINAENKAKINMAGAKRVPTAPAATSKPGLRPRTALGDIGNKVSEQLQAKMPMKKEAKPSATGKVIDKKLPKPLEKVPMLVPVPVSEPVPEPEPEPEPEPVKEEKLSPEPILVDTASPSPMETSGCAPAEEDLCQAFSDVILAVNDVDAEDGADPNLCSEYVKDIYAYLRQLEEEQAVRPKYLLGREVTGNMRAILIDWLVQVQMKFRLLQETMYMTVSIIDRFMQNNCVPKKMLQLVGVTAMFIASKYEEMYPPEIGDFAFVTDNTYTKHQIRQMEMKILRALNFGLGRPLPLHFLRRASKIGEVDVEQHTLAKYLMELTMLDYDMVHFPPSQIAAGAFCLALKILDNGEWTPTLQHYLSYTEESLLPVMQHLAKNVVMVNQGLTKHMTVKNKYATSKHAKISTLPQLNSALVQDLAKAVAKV
Sequence of Cyclin-dependent kinase 1/cyclin B1 (Homo sapiens, UniProt P06493) (P06493 whole entry): as the sequence (P06493 whole entry) above
Sequence of Cyclin-dependent kinase 1/cyclin B1 (Homo sapiens, UniProt P06493) (P14635 whole entry, further chain): as the sequence (P14635 whole entry) above
Sequence of RAC-alpha serine/threonine-protein kinase (P31749 whole entry): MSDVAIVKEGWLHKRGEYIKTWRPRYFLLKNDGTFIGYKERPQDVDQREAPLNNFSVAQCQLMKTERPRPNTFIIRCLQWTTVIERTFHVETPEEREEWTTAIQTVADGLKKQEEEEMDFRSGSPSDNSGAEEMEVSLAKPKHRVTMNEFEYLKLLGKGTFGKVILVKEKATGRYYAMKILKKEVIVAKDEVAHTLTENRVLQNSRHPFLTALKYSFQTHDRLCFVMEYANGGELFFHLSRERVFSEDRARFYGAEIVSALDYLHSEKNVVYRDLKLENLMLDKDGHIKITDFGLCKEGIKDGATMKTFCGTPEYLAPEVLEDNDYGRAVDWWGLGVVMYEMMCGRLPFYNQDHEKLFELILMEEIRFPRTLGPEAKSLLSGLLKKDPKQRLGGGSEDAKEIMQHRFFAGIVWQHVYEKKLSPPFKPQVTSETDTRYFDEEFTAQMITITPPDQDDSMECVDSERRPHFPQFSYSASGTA
Sequence of MAP kinase-activated protein kinase 2 (P49137 whole entry): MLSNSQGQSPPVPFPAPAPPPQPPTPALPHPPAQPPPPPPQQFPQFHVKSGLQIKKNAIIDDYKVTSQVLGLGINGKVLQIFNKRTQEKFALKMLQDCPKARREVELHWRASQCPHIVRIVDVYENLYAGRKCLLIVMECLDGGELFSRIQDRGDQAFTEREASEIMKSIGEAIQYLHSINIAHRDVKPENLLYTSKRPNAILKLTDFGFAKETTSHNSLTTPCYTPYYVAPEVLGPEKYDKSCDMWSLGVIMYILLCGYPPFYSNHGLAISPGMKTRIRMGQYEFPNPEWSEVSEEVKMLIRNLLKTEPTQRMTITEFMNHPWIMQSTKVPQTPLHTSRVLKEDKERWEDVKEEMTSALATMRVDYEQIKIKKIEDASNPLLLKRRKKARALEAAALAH
Sequence of Protein kinase C theta type (Q04759 whole entry): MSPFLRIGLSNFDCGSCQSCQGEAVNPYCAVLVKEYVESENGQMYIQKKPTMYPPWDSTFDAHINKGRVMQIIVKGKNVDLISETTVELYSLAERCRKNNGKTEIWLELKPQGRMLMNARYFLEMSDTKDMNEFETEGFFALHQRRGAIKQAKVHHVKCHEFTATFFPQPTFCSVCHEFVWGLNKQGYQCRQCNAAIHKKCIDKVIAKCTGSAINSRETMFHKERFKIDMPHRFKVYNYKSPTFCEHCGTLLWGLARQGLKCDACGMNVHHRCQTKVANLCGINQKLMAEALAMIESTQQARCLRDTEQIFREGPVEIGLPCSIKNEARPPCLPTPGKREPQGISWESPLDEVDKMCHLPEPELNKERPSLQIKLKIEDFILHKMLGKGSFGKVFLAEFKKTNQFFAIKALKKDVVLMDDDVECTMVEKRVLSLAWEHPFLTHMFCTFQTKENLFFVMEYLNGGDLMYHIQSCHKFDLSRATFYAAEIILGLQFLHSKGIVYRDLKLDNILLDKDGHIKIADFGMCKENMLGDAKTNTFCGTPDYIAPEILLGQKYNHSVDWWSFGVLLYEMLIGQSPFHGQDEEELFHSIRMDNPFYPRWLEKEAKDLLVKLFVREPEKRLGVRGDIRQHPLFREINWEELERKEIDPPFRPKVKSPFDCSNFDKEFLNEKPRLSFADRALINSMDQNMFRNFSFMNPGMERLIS
Sequence of Tyrosine-protein kinase Lck (P06239 whole entry): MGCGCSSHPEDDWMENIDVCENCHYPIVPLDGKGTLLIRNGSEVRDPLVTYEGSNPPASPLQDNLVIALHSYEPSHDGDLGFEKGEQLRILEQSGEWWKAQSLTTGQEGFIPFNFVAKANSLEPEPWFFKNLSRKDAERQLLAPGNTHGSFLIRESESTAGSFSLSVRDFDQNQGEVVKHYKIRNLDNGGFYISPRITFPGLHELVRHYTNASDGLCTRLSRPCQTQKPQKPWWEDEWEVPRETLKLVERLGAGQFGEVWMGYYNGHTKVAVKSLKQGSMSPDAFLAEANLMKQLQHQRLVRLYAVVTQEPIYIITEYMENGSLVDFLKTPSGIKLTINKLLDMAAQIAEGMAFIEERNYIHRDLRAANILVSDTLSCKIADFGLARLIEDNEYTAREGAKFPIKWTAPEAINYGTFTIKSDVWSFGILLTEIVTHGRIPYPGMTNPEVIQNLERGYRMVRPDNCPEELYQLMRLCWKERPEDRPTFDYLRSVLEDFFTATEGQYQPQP

SMILES	pIC50 (HCT-116)	pIC50 (MCF7)	pIC50 [3]	pIC50 [4]	pIC50 [5]	other results
COc1ccc(CN/C=C2\C(=O)NC(=O)c3ccc(I)cc32)cc1O	5.70	5.43				half-life [1]: 18 min; half-life [2]: 6 min
O=C1NC(=O)c2ccccc2/C1=C/NCc1ccc(O)c(O)c1			5.92	4.44		
CCCOc1cnc(CN/C=C2\C(=O)NC(=O)c3ccc(I)cc32)cc1O	6.14	6.06	7.52	4.60		half-life [1]: > 30 min; half-life [2]: > 30 min
COc1cnc(CN/C=C2\C(=O)NC(=O)c3ccc(I)cc32)nc1O	< 4.30	< 4.30	6.36	< 4.30	< 4.30	
CC(C)(C)c1ccc2c(c1)/C(=C/NCc1cc(O)c(-c3ccccc3)cn1)C(=O)NC2=O	6.82	6.15	7.52			
CCCOc1ccc(CN/C=C2\C(=O)NC(=O)c3ccc(I)cc32)cc1O	6.19	5.74	7.70	< 4.30	5.59	half-life [1]: > 30 min; half-life [2]: 15 min
COc1ccc(CN/C=C2\C(=O)NC(=O)c3ccc(Cl)cc32)cc1O					> 4.30	pIC50 [6]: > 4.30
Nc1ccc(CN/C=C2\C(=O)NC(=O)c3ccc(Br)cc32)cc1O						pIC50 [6]: > 4.30
COc1cc(CN/C=C2\C(=O)NC(=O)c3ccc(Br)cc32)cc(O)c1OC			8.15		> 4.30	pIC50 [6]: > 4.30
COc1ccc(C(C)N/C=C2\C(=O)NC(=O)c3ccc(Br)cc32)cc1O (centres undefined)			6.43		> 4.30	pIC50 [6]: > 4.30
COc1ccc(CN/C=C2\C(=O)NC(=O)c3ccc(Br)cc32)cc1O			7.52		> 4.30	pIC50 [6]: > 4.30; Ratio IC50 [7]: 1600; Ratio IC50 [8]: 1600
CCCOc1ccc(CN/C=C2\C(=O)NC(=O)c3ccc(I)cc32)nc1O	6.17	5.85	7.70	5.00	6.15	half-life [1]: > 30 min; half-life [2]: > 30 min
CCCOc1cnc(CN/C=C2\C(=O)NC(=O)c3ccc(C4CCCC4)cc32)cc1O	6.82	6.52	> 8.30	5.51		
COc1ccc(CN/C=C2\C(=O)NC(=O)c3ccc(-c4ccoc4)cc32)cc1O			8.70		5.96	
CCCOc1ccc(CN/C=C2\C(=O)NC(=O)c3ccc(Br)cc32)cc1O					4.46	
O=C1NC(=O)c2ccccc2/C1=C/NCc1cccc(O)c1					4.77	pIC50 [6]: > 4.30
O=C1NC(=O)c2ccccc2/C1=C/NCCc1ccc(O)c(O)c1			4.79			
O=C1NC(=O)c2ccccc2/C1=C/Nc1ccc(O)c(O)c1			5.11			
O=C1NC(=O)c2ccc(I)cc2/C1=C/NCc1ccc(-c2ccncc2)c(O)c1	5.64	5.82	8.10	< 4.30	< 4.30	
Cc1ccc(CN/C=C2\C(=O)NC(=O)c3ccc(I)cc32)cc1O	5.17	5.09	7.52		4.87	
O=C1NC(=O)c2ccc(I)cc2/C1=C/NCc1ccc(-c2ccoc2)c(O)c1			7.22	4.61		pIC50 [9]: 4.72; pIC50 [10]: < 5.40; pIC50 [11]: < 4.52; pIC50 [12]: 4.74; pIC50 [13]: 4.59; pIC50 [14]: 5.77; pIC50 [15]: 5.07; pIC50 [16]: < 4.52; pIC50 [17]: < 4.52; half-life [1]: > 30 min; half-life [2]: 18 min; pIC50 [18]: 4.99

SMILES	pIC50 (HCT-116)	pIC50 (MCF7)	pIC50 [3]	pIC50 [4]	pIC50 [5]	other results
CCOc1ccc(CN/C=C2\C(=O)NC(=O)c3ccc(Br)cc32)cc1O						pIC50 [6]: > 4.30
COc1ccc(CN(C)/C=C2\C(=O)NC(=O)c3ccc(Br)cc32)cc1O						pIC50 [6]: > 4.30
COCCOc1ccc(CN/C=C2\C(=O)NC(=O)c3ccc(Br)cc32)cc1O			7.40		> 4.30	pIC50 [6]: > 4.30
O=C1NC(=O)c2ccc(C3CCCC3)cc2/C1=C/NCc1cc(O)c(-c2ccoc2)cn1	6.09	6.08	> 8.30	5.51		
O=C1NC(=O)c2ccccc2/C1=C/NCc1ccc(O)cc1					4.76	pIC50 [19]: > 4.30
COc1ccc(CN/C=C2\C(=O)NC(=O)c3ccc(-n4cccc4)cc32)cc1O					5.51	
COc1ccc(CN/C=C2\C(=O)NC(=O)c3ccc(-c4ccsc4)cc32)cc1O						Ratio IC50 [7]: 11000; Ratio IC50 [8]: 9000
COc1ccc(CN/C=C2\C(=O)NC(=O)c3ccccc32)cc1O			6.72	4.31	5.16	
O=C1NC(=O)c2ccc(Br)cc2/C1=C/NCc1ccc(O)c(O)c1			7.40		> 4.30	pIC50 [6]: > 4.30
O=C1NC(=O)c2ccc(Br)cc2/C1=C/NCc1cc[nH]c(=O)c1				< 4.30		
O=C1NC(=O)c2ccc(I)cc2/C1=C/NCc1ccc(-c2ccccc2)c(O)c1	6.38	6.06				
COc1ccc(CN/C=C2\C(=O)NC(=O)c3ccc(-c4ccccc4)cc32)cc1O			8.00	4.46	4.59	
O=C1NC(=O)c2ccc(I)cc2/C1=C/NCc1ccc(-c2ccccn2)c(O)c1	6.60	6.27	4.71	< 4.30	< 4.30	
COc1cnc(CN/C=C2\C(=O)NC(=O)c3ccc(I)cc32)cc1O	5.89	6.00	8.00	4.83		half-life [1]: > 30 min; half-life [2]: > 30 min
CC(C)(C)c1ccc2c(c1)/C(=C/NCc1cc(O)c(-c3ccoc3)cn1)C(=O)NC2=O	6.32	5.85	7.70	5.02		
O=C1NC(=O)c2ccc(I)cc2/C1=C/NCc1ccc(-c2ccco2)c(O)c1	6.42	6.15	7.00	< 4.30		
COc1coc(CN/C=C2\C(=O)NC(=O)c3ccc(Br)cc32)cc1=O			5.89	< 4.30	4.77	
O=C1NC(=O)c2ccc(I)cc2/C1=C/NCc1ccc(-c2cccnc2)c(O)c1	6.36	5.96	8.00	< 4.30		
COc1ccc(CN/C=C2\C(=O)NC(=O)c3ccc(F)cc32)cc1O					5.18	pIC50 [6]: > 4.30
O=C1NC(=O)c2ccc(I)cc2/C1=C/NCc1cc(O)c(-c2ccoc2)cn1	6.26	5.57				half-life [1]: > 30 min; half-life [2]: 22 min
CCCOc1cnc(CN/C=C2\C(=O)NC(=O)c3ccc(C(C)(C)C)cc32)cc1O	6.37	6.15	7.70	5.21		
